Results: patent publication US7700584B2 (Hangzhou Minsheng Pharmaceuticals Co., Ltd., priority 2004, dated 2010)
Where a name gives a salt, the structure may show the parent alone. Read-outs that look alike come from different tables or passages of the source.

Key:
[1] = system: MCF-7 human mammary adenocarcinoma; assay: In vitro inhibition rate to tumor cells (MTT), MCF-7; assay type: cell-based; conditions: Homo sapiens, MCF7, 50 μg/ml, read-out: inhibition rate, Results (%) MCF-7
[2] = system: Hela human cervical carcinoma; assay: In vitro anti-tumor IC50 (MTT), Hela; assay type: cell-based; conditions: Homo sapiens, HeLa; Table 4; read-out: IC50 (ug/ml) against tumor cell lines, Hela
[3] = system: U-937 human histocytic lymphoma; assay: In vitro inhibition rate to tumor cells (MTT), U-937; assay type: cell-based; conditions: Homo sapiens, U-937, 50 μg/ml, read-out: inhibition rate, Results (%) U-937
[4] = target: T1, HIV-1 proteinase (HIV-1 PR) (Human immunodeficiency virus type 1 group M subtype B, UniProt P04585); assay: Screening for in vitro activity against HIV-1 proteinase; assay type: biochemical; conditions: for inhibition at 0.08 µg/mL: 0.08 μg/ml; for inhibition at 0.08 µg/mL / inhibition at 0.4 µg/mL / inhibition at 2 µg/mL / inhibition at 10 µg/mL: read-out: Inhibition rate; for inhibition at 0.4 µg/mL: 0.40 μg/ml; for inhibition at 2 µg/mL: 2.0 μg/ml; for inhibition at 10 µg/mL: 10 μg/ml; for IC50: IC50, five 5× serial dilutions from 50 μg/ml; for inhibition at 50 µg/mL: read-out: Inhibition rate, 50 μg/ml
T1 construct: HIV-1 proteinase digests the fluorescent-labeled substrate; purchased
In short: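 Recombinant HIV-1 PR cleaves a fluorescent-labeled substrate in reaction buffer. Samples were dissolved in DMSO and serially diluted 5-fold in water (five dilutions), then added before the enzyme. Fluorescence of the product was read after incubation; indinavir was the positive control.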

[5] = system: MCF-7 human mammary adenocarcinoma; assay: In vitro anti-tumor IC50 (MTT), MCF-7; assay type: cell-based; conditions: Homo sapiens, MCF7; Table 4; read-out: IC50 (ug/ml) against tumor cell lines, MCF
Procedure: (§1) (1) Single cell suspension was seeded into 96-well plates (the cells was diluted in the PRMI-1640 minimum medium to 3×10^4 cells/ml, […] diluted cells/well). […] The experiments were performed in quadruplicate.
(§2) (2) The medium was removed. Solutions of the anti-tumor agents (50 compounds) were prepared in a freshly prepared medium at serial concentrations. […] of the solution was added into each well. Incubation was continued for 48 hours.
(§3) (3) 20 ug of 2 mg/ml MTT was added into each well, and incubated for 4 hours.
(§4) (4) The medium was removed from the well. The microplates were swiftly turned down to throw-off the medium. […] of DMSO was added into each well, and vortexed at room temperature for 10 minutes.
(§5) (5) OD value (λ=570 nm) was measured with an Enzyme-Linked Detector.
(§6) (6) The graph of cell vitality was plotted, and IC50 was calculated.

[6] = system: SMMC-7721 human hepatic carcinoma; assay: In vitro inhibition rate to tumor cells (MTT), SMMC-7721; assay type: cell-based; conditions: Homo sapiens, SMMC-7721, 50 μg/ml, read-out: inhibition rate, Results (%) SMMC-7721
[7] = target: T2, HIV-1 reverse transcriptase (Human immunodeficiency virus type 1 group M subtype B, UniProt P04585); assay: Screening for the in vitro activity against the HIV-1 reverse transcriptase; assay type: biochemical
T2 construct: purchased
Procedure: Principle of the test: The template to which the HIV-1 reverse transcriptase interacts was covered onto the enzyme-lined template. In the optimal reaction conditions and system, HIV-1 RT will put the substrate comprising Biotin-dUTP onto the reaction template. The activity of the enzyme was measured as the amount of the integrating Biotin-dUTP in the reaction by using streptavidin-labeled horseradish peroxidase. Adding the sample to the reaction system can identify inhibitor of the enzyme.
1. HIV-1 RT: commercially available.
2. Treatment of the samples: Before use, the sample was dissolved in DMSO at a suitable concentration, then serially diluted (5×) with double distilled water, five serial dilutions per sample.
4. Methods: The diluted sample was added into the reaction buffer containing Biotin-dUTP and the genetic engineered target enzyme, and incubated in the optimal reaction conditions. A streptavidin-labeled horseradish peroxidase was added to visual the system, and OD450 was measured.

293 cells = assay: Cell status of 293 cells treated with sample alone (herpes virus screening); conditions: 200 μg/ml, 24 hrs
[8] = system: HL-60 human promyelocytic leukemia; assay: In vitro anti-tumor IC50 (MTT), HL-60; assay type: cell-based; conditions: Homo sapiens, HL-60; Table 4; read-out: IC50 (ug/ml) against tumor cell lines, HL-60
Procedure: as §1, §2, §3, §4, §5, §6

[9] = system: U-937 human histocytic lymphoma; assay: In vitro anti-tumor IC50 (MTT), U-937; assay type: cell-based; conditions: Homo sapiens, U-937; Table 4; read-out: IC50 (ug/ml) against tumor cell lines, U-937
Procedure: as §1, §2, §3, §4, §5, §6

[10] = system: Bel-7402 human hepatic carcinoma; assay: In vitro inhibition rate to tumor cells (MTT), Bel-7402; assay type: cell-based; conditions: Homo sapiens, Bel-7402, 50 μg/ml, read-out: inhibition rate, Results (%) Bel-7402
[11] = system: A-549 human lung adenocarcinoma; assay: In vitro inhibition rate to tumor cells (MTT), A-549; assay type: cell-based; conditions: Homo sapiens, A549, 50 μg/ml, read-out: inhibition rate, Results (%) A-549
[12] = system: HL-60 human promyelocytic leukemia; assay: In vitro inhibition rate to tumor cells (MTT), HL-60; assay type: cell-based; conditions: Homo sapiens, HL-60, 50 μg/ml, read-out: inhibition rate, Results (%) HL-60
[13] = system: LLC mouse Lewis lung carcinoma; assay: In vitro inhibition rate to tumor cells (MTT), LLC; assay type: cell-based; conditions: Mus musculus, Lewis lung carcinoma, 50 μg/ml
[14] = IC50, initial concentration 200 μg/ml

SMILES | inhibition at 50 µg/mL ([1]; Table 1) [%] | inhibition at 50 µg/mL ([1]; Table 2 (repeated screening)) [%] | inhibition at 50 µg/mL ([3]; Table 1) [%] | inhibition at 50 µg/mL ([3]; Table 2 (repeated screening)) [%] | inhibition at 0.08 µg/mL [4] [%] | inhibition at 0.4 µg/mL [4] [%] | inhibition at 2 µg/mL [4] [%] | inhibition at 10 µg/mL [4] [%] | IC50 [4] [µM] | inhibition at 50 µg/mL [4] [%] | inhibition at 50 µg/mL ([6]; Table 1) [%] | inhibition at 50 µg/mL ([6]; Table 2 (repeated screening)) [%] | Cytopathy and cell status, Sample (293 cells) | inhibition at 50 µg/mL ([10]; Table 1) [%] | inhibition at 50 µg/mL ([10]; Table 2 (repeated screening)) [%] | inhibition at 50 µg/mL ([11]; Table 1) [%] | inhibition at 50 µg/mL ([11]; Table 2 (repeated screening)) [%] | inhibition at 50 µg/mL ([12]; Table 1) [%] | inhibition at 50 µg/mL ([12]; Table 2 (repeated screening)) [%] | inhibition at 50 µg/mL ([13]; Table 1) [%] | further results
CC(C)C1CC23OC1(O)CC(=CBr)C2CCC3C (stereo not shown) [Compound 17, Curcumol monobromide] | 53.9 | 50.3 | 87.2 | 85.1 | 3.78 | 10.7 | -6 | 6.15 | > 159 | 9.94 | 10.2 | 0.32 | Good | -12.4 | -10.9 | 4.68 | 5.23 | 92.3 | 90.1 | 7.27 | IC50 [2]: 1.5 µg/mL; IC50 [5]: 4.63 µg/mL; IC50 [7, 14]: > 634 µM; IC50 [8]: 1.85 µg/mL; IC50 [9]: 0.92 µg/mL; inhibition at 50 µg/mL ([13]; Table 2 (repeated screening)): 2.31%
C=C1CC2(OC(=O)C(C)C)OC3(CC2C(C)C)C(C)CCC13 (stereo not shown) [Compound 3, Curcumol isobutyrate] | 32.1 | 22.4 | 91.7 | 93 | 4.98 | 13.5 | 9.64 | 12.1 | > 163 | 5.55 | 8.02 | 8.96 | Normal | 14.4 | 11 | 7.76 | 10.3 | 3.21 | 4.89 | 6.89 | inhibition rate of HIV-1 reverse transcriptase ([7]; 120 ug/ml): 60%; IC50 ([7]; IC50, initial concentration 1/150 of the stock solution): < 392 µM; inhibition at 50 µg/mL ([13]; Table 2 (repeated screening)): 0.02%
CC(C)C1CC23OC1(O)CC(=CN1CCNCC1)C2CCC3C (stereo not shown) [Compound 8, Curcumol piperazine hydrochloride] | 89.1 | 85.2 | 90.3 | 91.3 | 9.74 | 2.64 | 5.27 | 0.62 | > 156 | 1.4 | 4.5 | 2.3 | Good | 54.3 | 50.5 | 60.5 | 58.6 | 92 | 90.2 | 12.1 | inhibition at 50 µg/mL ([1]; Table 3 (repeated screening)): 86.2%; IC50 [2]: 0.59 µg/mL; inhibition at 50 µg/mL ([3]; Table 3 (repeated screening)): 94.4%; IC50 [5]: 3.28 µg/mL; inhibition at 50 µg/mL ([6]; Table 3 (repeated screening)): 7.98%; IC50 [7, 14]: > 624 µM; IC50 [8]: 1.68 µg/mL; IC50 [9]: 0.81 µg/mL; inhibition at 50 µg/mL ([10]; Table 3 (repeated screening)): 54.9%; inhibition at 50 µg/mL ([11]; Table 3 (repeated screening)): 55.9%; inhibition at 50 µg/mL ([12]; Table 3 (repeated screening)): 91.1%; inhibition at 50 µg/mL ([13]; Table 2 (repeated screening)): 1.02%; inhibition at 50 µg/mL ([13]; Table 3 (repeated screening)): 3.12%
